{
  "source": "patent US20220145303A1",
  "about": "“FRAGILE X MENTAL RETARDATION PROTEIN INTERFERING OLIGONUCLEOTIDES AND METHODS OF USING SAME” (Nogra Pharma Limited, priority 2019, published 2022)",
  "key": {"human CRC cell lines": {"system": "human CRC cell lines", "experiment": "Antisense-induced cell death with RIPK1 or MLKL inhibitor (PI/AnnV flow cytometry)", "type": "cell-based", "conditions": "NEC1 10 μM, NSA 1 μM, 24 hours, FIGS. 6E, 6F", "procedure": "To confirm the association of FMRP with components of the necroptosis pathway, cells were left untreated or transfected with either FMRP antisense oligonucleotide (final concentration 0.5 nM and 100 nM) or FMRP sense oligonucleotide (final concentration 100 nM); incubated with a pMLKL inhibitor (necrosulfonamide, NSA; final concentration 1 μM)(Calbiochem); or a pRIPK1 inhibitor (necrostatinl, NEC1; final concentration 10 μM)(Cayman Chemical, Ann Arbor, Mich. USA). After 24 hours cells were collected and analyzed by Western blot, or stained with FITC-Annexin V and PI for flow cytometry analysis, as previously described in Examples 1-3."}, "FMRP [1]": {"system": "FMRP", "experiment": "FMRP knockdown: Western blot of FMRP after transfection with FMRP antisense or sense oligonucleotide", "type": "cell-based, human", "conditions": "48 hours, AS 0.5-100 nM, S 100 nM", "procedure": "Total proteins were extracted from mouse colonic tissues, and lysed on ice in buffer containing 10 mM HEPES [pH 7.9], 10 mM KCl, 0.1 mM EthyleneDiamineTetraacetic Acid (EDTA), 0.2 mM Ethylene Glycol-bis (β-aminoethyl ether)-N,N,N′,N′-Tetraacetic Acid (EGTA) and 0.5% Nonidet P40 supplemented with 1 mM dithiothreitol (DTT), […], […], 1 mM phenylmethylsulfonyl fluoride (PMSF), 1 mM Na3VO4, and 1 mM NaF. Lysates were clarified by centrifugation and separated on sodium dodecyl sulphate (SDS)-polyacrylamide gel electrophoresis. Blots were incubated with antibodies against: FMRP (Cell Signaling, Danvers, Mass.), followed by a secondary antibody conjugated to horseradish peroxidase (Dako, Milan, Italy). After analysis, each blot was stripped and incubated with a mouse-anti-human monoclonal β-actin antibody (Sigma-Aldrich) to ascertain equivalent loading of the lanes.\nHuman CRC cell lines, DLD-1 and HCT-116, were obtained from the American Type Culture Collection (ATCC, Manassas, Va.) and cultured in RPMI 1640 (DLD-1) and McCoy's 5A (HCT-116) medium, respectively. All media were supplemented with 10% fetal bovine serum, 1% penicillin/streptomycin (both from Lonza, Verviers, Belgium). The normal human colon epithelial cell line (HCEC-1ct) was obtained from EVERCYTE GmbH (Vienna, Austria) and cultured in ColoUp® medium (EVERCYTE GmbH). Cells were maintained in a 37° C., 5% CO2, fully humidified incubator. Cell line lysates were prepared and analyzed by SDS-polyacrylamide gel electrophoresis/immunoblot using methods as previously described in Example 2. For immunofluorescent staining, cell lines were fixed with 3.7% formaldehyde for 10 minutes at 4° C., permeabilized with 0.1% Triton for 10 minutes at room temperature and blocked (1% bovine serum albumin, Tween 0.1%, glycine 2%) for 1 hour at room temperature. Fixed and blocked cells were incubated with anti-FMRP monoclonal antibody (1:500, Cell Signaling, Danvers, Mass.) overnight at 4° C. After washing with PBS, secondary antibody goat anti-rabbit Alexa 488 (1:2000, A11008; Invitrogen) was applied for 1 hour at room temperature. Slides were washed with PBS, mounted using Prolong Gold® anti-fade reagent with 4′,6-diamidino-2-phenylindole (P36931; Invitrogen) and analyzed by a Leica DMI4000 B microscope with Leica application suite software (V4.6.2).\nPhosphorothioate single-stranded antisense oligonucleotides complementary to human FMRP [5′-[…]-3′ (SEQ ID NO: 6)] and single-stranded sense oligonucleotides [5′-[…]-3′ (SEQ ID NO: 15)] were synthesized. CRC cell lines and HCEC-1ct cells were transfected with either FMRP antisense (AS)(final concentration 0.5-100 nM) or FMRP sense oligonucleotide (S) (final concentration100 nM) for 24 and 48 hours, using Opti-MEM medium and lipofectamine 3000 reagent (Thermo Fisher Scientific, Waltham, Mass., USA) according to the manufacturer's instructions."}, "caspase 3": {"system": "caspase 3", "experiment": "Activated caspase 3 by flow cytometry in CRC cells", "type": "cell-based, human", "conditions": "oligonucleotide 100 nM 36 hours, staurosporin 1 μM, FIGS. 4A, 4B", "procedure": "(§1) Immunotools, Friesoythe, Germany) according to the manufacturer's instructions, and incubated with […] of propidium iodide (PI) for 30 min at 4° C. Cells were also transfected with either FMRP sense oligonucleotide or FMRP AS oligonucleotide (final concentration 100 nM) for 36 hours and analyzed for activated caspase 3 and caspase 8. […] Additionally, 36 hours (FIGS. 4F and 4G) or 48 hours post-transfection (FIGS. 4D and 4E), cells were pulsed with […] bromodeoxyuridine for 60 minutes, fixed in 70% cold ethanol, and stored at −20° C. for at least 3 hours. […] Fluorescence was measured using Gallios Flow Cytometer (Beckman Coulter, Life Sciences, Pasadena, Calif., USA) and analyzed using Kaluza software (Beckman Coulter). Viable cells were considered as AV^−/PI^− cells."}, "CREB": {"system": "CREB", "experiment": "Western blot of CREB after CREB antisense transfection", "type": "cell-based", "conditions": "human CRC cell lines, 200 nM, 24 or 48 hours, vs untreated or sense control, FIGS. 7D, 7E", "procedure": "(§2) To asses if CREB regulates FMRP expression, CRC cell lines were transfected with either CREB antisense (ASc) (5′-[…]-3′) (SEQ ID NO: 16) or CREB sense (Ss) (5′-[…]-3′)(SEQ ID NO: 17)(final concentration 200 nM) for 24 or 48 hours. mRNA and total protein lysates were prepared and analyzed by RT-PCR and Western blot, respectively, as previously described in Examples 1 to 3."}, "FMRP [2]": {"system": "FMRP", "experiment": "Western blot of FMRP after CREB antisense transfection", "type": "cell-based", "conditions": "human CRC cell lines, CREB antisense 200 nM, 24 or 48 hours, FIGS. 7D, 7F", "procedure": "as §2"}, "CRC cells": {"system": "CRC cells", "experiment": "Antisense-induced cell death after pan-caspase inhibitor pre-treatment (PI/AnnV flow cytometry)", "type": "cell-based, human", "conditions": "Q-VD-OPh 1 μM pre-treatment, FIG. 4C", "procedure": "as §1"}},
  "data": [
    {"molecule": "COc1nccnc1NS(=O)(=O)c1ccc(NC(=O)/C=C/c2ccc([N+](=O)[O-])s2)cc1", "note": "[necrosulfonamide]", "values": [
      {"measurement": "effect on FMRP antisense oligonucleotide-induced cell death", "setting": "human CRC cell lines", "result": "protected from FMRP antisense oligonucleotide-induced cell death"}
    ]},
    {"molecule": "5′-ATGGAGGAGCTGGTGGTGGA-3′ (DNA, backbone and methylation of C not given here; further chemistry not fully specified) [sense oligonucleotide, single-stranded sense oligonucleotides, control, reference compound]", "values": [
      {"measurement": "FMRP expression", "setting": "FMRP [1]; DLD-1 cells, FIG. 3D", "result": "no significant inhibition"},
      {"measurement": "FMRP expression", "setting": "FMRP [1]; HCEC-1ct cells, FIG. 3I", "result": "no significant inhibition"},
      {"measurement": "FMRP expression", "setting": "FMRP [1]; HCT-116 cells, FIG. 3G", "result": "no significant inhibition"}
    ]},
    {"molecule": "CN[C@@H]1C[C@H]2O[C@@](C)([C@@H]1OC)n1c3ccccc3c3c4c(c5c6ccccc6n2c5c31)C(=O)NC4", "note": "[staurosporin, reference compound]", "values": [
      {"measurement": "percentage of activated caspase 3-positive cells", "setting": "caspase 3", "result": "significantly increased"}
    ]},
    {"molecule": "5′-GCATCTCCACTCTGCTGGTT-3′ (listed as DNA, chemistry not given here) [CREB antisense oligonucleotide, CREB antisense (ASc)]", "values": [
      {"measurement": "CREB protein expression", "setting": "CREB", "result": "reduced expression of CREB protein"},
      {"measurement": "FMRP protein expression", "setting": "FMRP [2]", "result": "concomitant reduction in FMRP protein expression"}
    ]},
    {"molecule": "CN1C(=O)C(Cc2c[nH]c3ccccc23)NC1=S", "note": "(stereo not drawn) [necrostatin 1]", "values": [
      {"measurement": "effect on FMRP antisense oligonucleotide-induced cell death", "setting": "human CRC cell lines", "result": "protected from FMRP antisense oligonucleotide-induced cell death"}
    ]},
    {"molecule": "CC(C)[C@H](NC(=O)c1ccc2ccccc2n1)C(=O)N[C@@H](CC(=O)O)C(=O)COc1c(F)cccc1F", "note": "[Q-VD-OPh]", "values": [
      {"measurement": "effect of pre-treatment on FMRP antisense oligonucleotide-induced cell death", "setting": "CRC cells", "result": "did not alter FMRP antisense oligonucleotide-induced cell death"}
    ]}
  ]
}
